{"source": "patent US20060241173A1", "about": "“Compound” (Sterix Ltd., priority 1996, published 2006)", "key": {"[1]": {"molecular_target": "T1, E1-STS (Rattus norvegicus, UniProt P15589)", "T1 sequence (P15589 20-577)": "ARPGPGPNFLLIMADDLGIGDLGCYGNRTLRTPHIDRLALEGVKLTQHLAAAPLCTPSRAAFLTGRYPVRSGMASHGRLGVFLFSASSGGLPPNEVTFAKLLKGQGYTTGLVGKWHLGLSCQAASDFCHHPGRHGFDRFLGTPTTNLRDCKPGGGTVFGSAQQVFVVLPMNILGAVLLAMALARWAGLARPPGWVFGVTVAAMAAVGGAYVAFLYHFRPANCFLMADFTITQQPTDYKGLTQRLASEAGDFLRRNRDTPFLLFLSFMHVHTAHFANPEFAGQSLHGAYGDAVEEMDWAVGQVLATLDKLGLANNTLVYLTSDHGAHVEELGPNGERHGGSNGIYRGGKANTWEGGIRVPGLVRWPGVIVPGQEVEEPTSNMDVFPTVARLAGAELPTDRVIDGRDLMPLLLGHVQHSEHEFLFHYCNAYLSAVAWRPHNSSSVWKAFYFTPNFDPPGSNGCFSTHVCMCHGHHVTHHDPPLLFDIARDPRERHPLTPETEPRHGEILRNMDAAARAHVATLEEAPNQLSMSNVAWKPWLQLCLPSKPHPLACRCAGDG", "experiment": "Oral activity in rats (preliminary data)", "type": "in vivo", "parameters": "The E1-STS activity in the uteri obtained from these animals; from tissue; host or cells: rat uterus"}, "[2]": {"molecular_target": "T2, sulphatase (Rattus norvegicus, UniProt P15589)", "T2 construct": "from tissue; host or cells: rat white blood cells", "T2 sequence (P15589 20-577)": "T1 sequence (P15589 20-577)", "experiment": "Oral dosing in rats: sulphatase activity in white blood cells", "type": "in vivo"}, "[3]": {"molecular_target": "T3, E1-STS (Homo sapiens, UniProt P08842)", "T3 sequence (P08842 22-583)": "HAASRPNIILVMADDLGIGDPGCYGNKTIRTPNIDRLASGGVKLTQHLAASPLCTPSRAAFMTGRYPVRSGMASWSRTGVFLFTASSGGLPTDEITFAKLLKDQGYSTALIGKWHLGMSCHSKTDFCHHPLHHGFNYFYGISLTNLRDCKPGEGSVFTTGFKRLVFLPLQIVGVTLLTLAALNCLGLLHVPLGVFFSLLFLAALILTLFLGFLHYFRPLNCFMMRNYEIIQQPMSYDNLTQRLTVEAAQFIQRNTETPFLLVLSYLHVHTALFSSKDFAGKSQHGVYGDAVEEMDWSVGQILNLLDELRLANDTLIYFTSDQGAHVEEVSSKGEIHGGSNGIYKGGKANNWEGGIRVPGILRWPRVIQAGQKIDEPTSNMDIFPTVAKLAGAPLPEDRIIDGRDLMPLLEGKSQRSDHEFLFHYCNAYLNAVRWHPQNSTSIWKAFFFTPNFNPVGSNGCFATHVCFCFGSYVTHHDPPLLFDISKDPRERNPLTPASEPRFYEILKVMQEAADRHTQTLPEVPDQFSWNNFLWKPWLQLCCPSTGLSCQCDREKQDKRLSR", "experiment": "Time- and concentration-dependent inactivation of oestrone sulphatase in placental microsomes", "type": "biochemical", "parameters": "from tissue; host or cells: placental microsomes (100,000 g fraction)"}, "[4]": {"test_system": "uterine weight", "experiment": "Oestrogenic activity: uterine weight in ovariectomised rats", "type": "in vivo, rat", "conditions": "1 mg/kg subcutaneously for 5 days"}}, "data": [{"molecule": "Cc1cc(=O)oc2cc(OS(N)(=O)=O)ccc12", "note": "[Compound 14]", "values": [{"measurement": "Oral activity in rats (in words)", "setting": "[1]", "result": "potent oral activity"}, {"measurement": "% Inhibition MD", "setting": "[2]; oral daily for seven days 0.1 mg/kg", "result": 65, "unit": "%"}, {"measurement": "% Inhibition MD", "setting": "[2]; oral daily for seven days 1.0 mg/kg", "result": 85, "unit": "%"}, {"measurement": "% Inhibition MD", "setting": "[2]; oral daily for seven days 10.0 mg/kg", "result": 89, "unit": "%"}, {"measurement": "% Inhibition SD", "setting": "[2]; oral single dose 0.1 mg/kg", "result": 72, "unit": "%"}, {"measurement": "% Inhibition SD", "setting": "[2]; oral single dose 1.0 mg/kg", "result": 85, "unit": "%"}, {"measurement": "% Inhibition SD", "setting": "[2]; oral single dose 10.0 mg/kg", "result": 96, "unit": "%"}, {"measurement": "Manner of E1-STS inhibition (in words)", "setting": "[3]", "result": "time- and concentration-dependent manner in a biphasic fashion"}, {"measurement": "Uterine weight (oestrogenic agonist properties)", "setting": "[4]", "result": "did not result in any significant increase in the uterine weight"}]}]}
